Reference: the NIST ThermoML archive (doi:10.1021/je7003148)
Numbers after ± are expanded uncertainties.

Assay: cn = amount concentration of the nth substance listed, in mol/dm3
Conditions: 298 K; for surface tension liquid-gas: Ring tensiometer; for kinematic viscosity / speed of sound / mass density: 101.33 kPa, Liquid; for kinematic viscosity: Capillary tube (Ostwald / Ubbelohde) method; for speed of sound: Sing-around technique in a fixed-path interferometer

O [water] + CCCCCCCCCCCCCCCCCC[N+](C)(C)C.[Br-]
c2 = 0
Conditions | kinematic viscosity [m2/s] | surface tension liquid-gas [mN/m]
– | 8.957e-07 ± 6.1e-09 | 72.5 ± 0.9

CCCCCCCCCCCCCC[N+](C)(C)C.[Br-] [tetradecyltrimethylammonium bromide] + O
Conditions | kinematic viscosity [m2/s] | mass density [kg/m3] | speed of sound [m/s] | surface tension liquid-gas [mN/m]
c1 = 0.001 | 8.962e-07 ± 6.1e-09 | 997.062 ± 0.26 | 1496.9 ± 0.9 | 60.4 ± 0.8
c1 = 0.002 | 8.968e-07 ± 6.2e-09 | 997.064 ± 0.27 | 1497.2 ± 0.9 | 51.7 ± 0.7
c1 = 0.003 | 8.991e-07 ± 6.2e-09 | 997.087 ± 0.27 | 1497.3 ± 0.9 | 44 ± 0.6
c1 = 0.005 | 9.015e-07 ± 6.2e-09 | 997.106 ± 0.27 | 1497.4 ± 0.9 | 40.6 ± 0.6
c1 = 0.01 | 9.078e-07 ± 6.2e-09 | 997.153 ± 0.27 | 1497.5 ± 0.9 | 38 ± 0.5
c1 = 0.015 | 9.144e-07 ± 6.3e-09 | 997.204 ± 0.27 | 1497.6 ± 0.9 | 37.8 ± 0.5
c1 = 0.02 | 9.215e-07 ± 6.3e-09 | 997.268 ± 0.26 | 1497.7 ± 0.9 | 37.6 ± 0.5
c1 = 0.025 | 9.29e-07 ± 6.4e-09 | 997.307 ± 0.26 | 1497.8 ± 0.9 | 37.4 ± 0.5
c1 = 0.03 | 9.368e-07 ± 6.4e-09 | 997.349 ± 0.26 | 1497.8 ± 0.9 | 37.1 ± 0.5
c1 = 0.035 | 9.45e-07 ± 6.5e-09 | 997.402 ± 0.26 | 1497.9 ± 0.9 | 37 ± 0.5
c1 = 0.04 | 9.537e-07 ± 6.5e-09 | 997.458 ± 0.26 | 1497.9 ± 0.9 | 36.9 ± 0.5
c1 = 0.045 | 9.627e-07 ± 6.6e-09 | 997.5 ± 0.26 | 1498 ± 0.9 | 36.8 ± 0.5
c1 = 0.05 | 9.722e-07 ± 6.7e-09 | 997.545 ± 0.26 | 1498.1 ± 0.9 | 36.7 ± 0.5
c1 = 0.055 | 9.82e-07 ± 6.7e-09 | 997.604 ± 0.26 | 1498.1 ± 0.9 | 36.7 ± 0.5

CCCCCCCCCCCCCCCCCC[N+](C)(C)C.[Br-] [N,N,N-trimethyl-1-octadecanaminium bromide] + O
Conditions | kinematic viscosity [m2/s] | mass density [kg/m3] | speed of sound [m/s] | surface tension liquid-gas [mN/m]
c1 = 0.001 | 8.957e-07 ± 6.1e-09 | 997.053 ± 0.27 | 1497.2 ± 0.9 | 62.3 ± 0.8
c1 = 0.002 | 8.958e-07 ± 6.1e-09 | 997.053 ± 0.27 | 1497.7 ± 0.9 | 54.2 ± 0.7
c1 = 0.003 | 8.958e-07 ± 6.1e-09 | 997.053 ± 0.27 | 1498 ± 0.9 | 48.7 ± 0.6
c1 = 0.004 | 8.958e-07 ± 6.1e-09 | 997.053 ± 0.27 | 1498.2 ± 0.9 | 45 ± 0.6
c1 = 0.005 | 8.959e-07 ± 6.1e-09 | 997.053 ± 0.27 | 1498 ± 0.9 | 42.8 ± 0.6
c1 = 0.006 | 8.959e-07 ± 6.1e-09 | 997.054 ± 0.27 | 1497.8 ± 0.9 | 42 ± 0.6
c1 = 0.008 | 8.96e-07 ± 6.1e-09 | 997.054 ± 0.27 | 1497.2 ± 0.9 | 41.4 ± 0.6
c1 = 0.01 | 8.96e-07 ± 6.1e-09 | 997.054 ± 0.27 | 1496.7 ± 0.9 | 41.3 ± 0.6
c1 = 0.013 | 8.961e-07 ± 6.2e-09 | 997.054 ± 0.27 | 1496 ± 0.9 | 41 ± 0.6
c1 = 0.016 | 8.962e-07 ± 6.2e-09 | 997.054 ± 0.27 | 1495.2 ± 0.9 | 40.8 ± 0.6
c1 = 0.02 | 8.963e-07 ± 6.2e-09 | 997.055 ± 0.27 | 1494.2 ± 0.9 | 40.4 ± 0.6
c1 = 0.025 | 8.965e-07 ± 6.2e-09 | 997.055 ± 0.27 | 1492.7 ± 0.9 | 40.2 ± 0.5
c1 = 0.03 | 8.966e-07 ± 6.2e-09 | 997.056 ± 0.27 | 1491.6 ± 0.9 | 39.6 ± 0.5
c1 = 0.04 | 8.969e-07 ± 6.2e-09 | 997.057 ± 0.27 | 1489.2 ± 0.9 | 39.3 ± 0.5

O [water] + CCCCCCCCCCCCCC[N+](C)(C)C.[Br-]
c2 = 0
Conditions | kinematic viscosity [m2/s] | surface tension liquid-gas [mN/m]
– | 8.957e-07 ± 6.1e-09 | 72.5 ± 0.9
